For 16 molecules, IC50 results are on record in EP4800015A1, “AZABICYCLO DERIVATIVE AND PREPARATION METHOD THEREFOR, AND USE” (Zhejiang Hisun Pharmaceutical Co., Ltd., priority 2023, dated 2025).

Like-named read-outs stand apart in the source and are kept apart here.

For test [1], the target named is T1, recombinant human WRN (Homo sapiens, UniProt Q14191).
T1 construct: purchased BPS 101264
Briefly: Inhibition of WRN enzyme activity (ATPase), ADP-Glo Kinase Assay. Format: biochemical. Conditions: WRN protein 5 nM, Flap 0.1 nM, ATP 30 µM. An outline of the steps:
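ATPase activity was measured by ADP-Glo luminescence after a 10-min room-temperature reaction with 30 µM ATP and 0.1 nM Flap26 oligonucleotide substrate. The 5 nM WRN had first been exposed to compound (0.004–1000 nM) for 15 min in pH 7.5 Tris buffer with 2 mM MgCl2. IC50 values came from log-concentration regression against the DMSO control.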
(In general: In ADP-Glo the light output rises with the ADP produced.)

Test [2] has as its system RL95-2 cells. Kind of test: Inhibition of RL95-2 cell proliferation (CellTiter-Glo). Type of test: cell-based. Conditions: Homo sapiens; RL95-2 cells (MSI-H), 120 hours. The protocol:
The following method was used to determine the effect of the compounds of the present disclosure on RL95-2 cell proliferation. RL95-2 cells (MSI-H cells) were purchased from Cell Resource Center of Shanghai Institutes for Biological Sciences, Chinese Academy of Sciences, and cultured in DMEM/F12 medium (Gibco, catalog No. A4192001) containing 10% fetal bovine serum, 100 U penicillin, and 100 µg/mL streptomycin. Cell viability was determined by CellTiter-Glo® Luminescent Cell Viability Assay kit (Promega, catalog No. G7573).
The experiment was performed according to the steps of the kit manual, which is briefly described as follows: test compounds were first dissolved in DMSO to prepare 10 mM stock solutions, and then diluted with medium to prepare test samples, with final compound concentrations ranging from 10000 nM to 1.52 nM. Cells in logarithmic growth phase were seeded into 96-well cell culture plates at a density of 500 cells per well and cultured overnight at 37 °C in a 5% CO2 incubator, and then test compounds were added and cultivation continued for 120 hours. After the cultivation was completed, 50 µL of CellTiter-Glo detection reagent was added to each well, shaken for 5 minutes, and then left to stand for 10 minutes. Luminescence values of each well were read on a microplate reader using Luminescence mode. The percentage inhibition at each concentration point was calculated by comparison with the control group (0.1% DMSO), and then IC50 values for the compounds for inhibition of cell proliferation were obtained using nonlinear regression analysis of compound concentration logarithm versus inhibition rate in GraphPad Prism 9 software, as shown in Table 3.
The IC50 value results of the compounds of the present disclosure are represented by A, wherein "A" indicates 1 nM < IC50 ≤ 100 nM. Table 3 IC50 data for inhibition of RL95-2 cell proliferation by the compounds of the present disclosure
Background: ATP-based viability assays read luminescence as a measure of living cells.

T1 sequence (Q14191 whole entry): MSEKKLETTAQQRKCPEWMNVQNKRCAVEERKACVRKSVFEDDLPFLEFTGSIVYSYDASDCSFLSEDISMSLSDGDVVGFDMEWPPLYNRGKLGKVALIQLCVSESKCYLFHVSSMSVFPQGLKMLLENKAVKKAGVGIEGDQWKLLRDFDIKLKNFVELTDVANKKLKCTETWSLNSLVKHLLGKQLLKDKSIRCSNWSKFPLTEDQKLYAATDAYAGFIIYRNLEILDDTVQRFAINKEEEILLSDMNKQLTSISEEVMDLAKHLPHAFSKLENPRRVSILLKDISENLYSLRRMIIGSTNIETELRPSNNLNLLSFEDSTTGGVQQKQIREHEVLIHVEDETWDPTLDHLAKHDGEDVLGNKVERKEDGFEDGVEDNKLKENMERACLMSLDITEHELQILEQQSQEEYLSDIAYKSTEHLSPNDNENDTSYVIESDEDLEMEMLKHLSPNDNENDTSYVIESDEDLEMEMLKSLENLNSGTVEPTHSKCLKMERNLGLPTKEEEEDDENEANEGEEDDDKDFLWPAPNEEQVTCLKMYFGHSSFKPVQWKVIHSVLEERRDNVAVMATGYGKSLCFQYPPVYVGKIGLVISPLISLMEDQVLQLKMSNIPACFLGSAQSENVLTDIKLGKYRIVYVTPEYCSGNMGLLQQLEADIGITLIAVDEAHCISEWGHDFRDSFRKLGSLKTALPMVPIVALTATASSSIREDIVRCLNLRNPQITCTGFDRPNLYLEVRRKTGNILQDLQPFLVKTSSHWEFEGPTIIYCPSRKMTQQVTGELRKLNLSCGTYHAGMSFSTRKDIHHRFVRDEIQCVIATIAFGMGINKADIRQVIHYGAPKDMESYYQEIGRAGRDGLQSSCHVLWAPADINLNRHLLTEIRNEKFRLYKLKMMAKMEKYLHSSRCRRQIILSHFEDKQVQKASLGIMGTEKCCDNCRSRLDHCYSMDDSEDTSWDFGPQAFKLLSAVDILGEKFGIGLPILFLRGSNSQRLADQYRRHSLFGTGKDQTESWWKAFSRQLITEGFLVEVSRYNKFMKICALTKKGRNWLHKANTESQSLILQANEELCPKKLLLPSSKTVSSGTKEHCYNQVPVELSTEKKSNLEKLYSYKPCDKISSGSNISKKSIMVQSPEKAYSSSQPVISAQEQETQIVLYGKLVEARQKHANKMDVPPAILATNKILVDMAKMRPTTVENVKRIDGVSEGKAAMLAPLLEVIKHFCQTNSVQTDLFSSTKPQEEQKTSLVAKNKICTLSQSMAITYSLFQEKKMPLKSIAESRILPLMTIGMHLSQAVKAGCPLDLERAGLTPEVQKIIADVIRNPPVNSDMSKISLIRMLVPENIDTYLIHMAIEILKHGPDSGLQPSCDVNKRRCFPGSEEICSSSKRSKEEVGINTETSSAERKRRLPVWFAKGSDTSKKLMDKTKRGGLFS

Regarding `CCc1c(N2CCN(C(=O)c3ncnc(C)c3O)CC2)c(=O)n2nc(C3=CCCCOC3)nc2n1CC(=O)Nc1ccc(C(F)(F)F)cc1Cl` [Example 62, N-(2-chloro-4-(trifluoromethyl)phenyl)-2-(5-ethyl-6-(4-(5-hydroxy-6-methylpyrimidine-4-carbonyl)piperazin-1-yl)-7-oxo-2-(2,5,6,7-tetrahydrooxepin-3-yl)-[1,2,4]triazolo[1,5-a]pyrimidin-4(7H) -yl)acetamide], the IC50 in test [1] (read-out: IC50) and in test [2] was 1 to 100 nM throughout.

Consider `CCc1c(N2CCN(C(=O)c3ncnc(C)c3O)CC2)c(=O)n2nc(C3=CCCCOC3)nc2n1CC(=O)Nc1ccc(S(F)(F)(F)(F)F)cc1` [Example 63, 2-(5-ethyl-6-(4-(5-hydroxy-6-methylpyrimidine-4-carbonyl)piperazin-1-yl)-7-oxo-2-(2,5,6,7-tetra hydrooxepin-3-yl)-[1,2,4]triazolo[1,5-a]pyrimidin-4(7H)-yl)-N-(4-(pentafluoro-λ^6-sulfaneyl)phenyl)acetamide], for which the IC50 in test [1] (read-out: IC50) and in test [2] was 1 to 100 nM throughout.

For the molecule `CCc1c(N2CCN(C(=O)c3ncnc(C)c3O)CC2)c(=O)n2nc(C3=CCC4(CC3)COC4)nc2n1CC(=O)Nc1ccc(C(F)(F)F)cc1Cl` [Example 65, N-(2-chloro-4-(trifluoromethyl)phenyl)-2-(5-ethyl-6-(4-(5-hydroxy-6-methylpyrimidine-4-carbonyl)piperazin-1-yl)-7-oxo-2-(2-oxaspiro[3.5]non-6-en-7-yl)-[1,2,4]triazolo[1,5-a]pyrimidin-4(7H)-yl)acetamide], the IC50 in test [1] (read-out: IC50) and in test [2] was 1 to 100 nM each time.

Regarding `CCc1c(N2CCN(C(=O)c3ncnc(C)c3O)CC2)c(=O)n2nc(C3=CC4CC4C3)nc2n1CC(=O)Nc1ccc(S(F)(F)(F)(F)F)cc1` (stereo not shown) [Example 66, 2-(2-(Bicyclo[3.1.0]hex-2-en-3-yl)-5-ethyl-6-(4-(5-hydroxy-6-methylpyrimidine-4-carbonyl)piperazin-1-yl)-7-oxo-[1,2,4]triazolo[1,5-a]pyrimidin-4(7H)-yl)-N-(4-(pentafluoro-λ^6-thiol)phenyl)acetamide], the IC50 was less than 1 nM in test [1] (read-out: IC50) and 1 to 100 nM in test [2].

Consider `CCc1c(N2CCN(C(=O)c3ncnc(C)c3O)CC2)c(=O)n2nc(-c3cccc4ccoc34)nc2n1CC(=O)Nc1ccc(C(F)(F)F)cc1Cl` [Example 69, 2-(2-(benzofuran-7-yl)-5-ethyl-6-(4-(5-hydroxy-6-methylpyrimidine-4-carbonyl)piperazin-1-yl)-7-oxo-[1,2,4]triazolo[1,5-a]pyrimidin-4(7H)-yl)-N-(2-chloro-4-(trifluoromethyl)phenyl)acetamide], for which the IC50 in test [1] (read-out: IC50) is less than 1 nM; in test [2], 1 to 100 nM.

For the molecule `CCc1c(N2CCN(C(=O)c3ncnc(C)c3O)CC2)c(=O)n2nc(C3=CCCCCC3)nc2n1CC(=O)Nc1ccc(S(F)(F)(F)(F)F)cc1Cl` [Example 70, N-(2-chloro-4-(pentafluoro-λ^6-sulfaneyl)phenyl)-2-(2-(cyclohept-1-en-1-yl)-5-ethyl-6-(4-(5-hydroxy-6-methylpyrimidine-4-carbonyl)piperazin-1-yl)-7-oxo-[1,2,4]triazolo[1,5-a]pyrimidin-4(7H) -yl)acetamide], the half-inhibitory concentration (IC50) in test [1] (read-out: IC50) and in test [2] was 1 to 100 nM throughout.

Take `CCc1c(N2CCN(C(=O)c3ncccc3O)CC2)c(=O)n2nc(C3=CC4CC(=O)CC4C3)nc2n1CC(=O)Nc1ccc(S(F)(F)(F)(F)F)cc1` (stereo not shown) [Example 71, 2-(5-ethyl-6-(4-(3-hydroxypicolinoyl)piperazin-1-yl)-7-oxo-2-(5-oxo-1,3a,4,5,6,6a-hexahydropentalen-2-yl)-[1,2,4]triazolo[1,5-a]pyrimidin-4(7H)-yl)-N-(4-(pentafluoro-λ^6-sulfaneyl)phenyl)acetamide]: the results for the IC50 in test [1] (read-out: IC50) and in test [2] were less than 1 nM and 1 to 100 nM, respectively.

`CCc1c(N2CCN(C(=O)c3ncnc(C)c3O)CC2)c(=O)n2nc(-c3cc4ccccc4[nH]3)nc2n1CC(=O)Nc1ccc(C(F)(F)F)cc1Cl` [Example 73, N-(2-Chloro-4-(trifluoromethyl)phenyl)-2-(5-ethyl-6-(4-(5-hydroxy-6-methylpyrimidine-4-carbonyl)piperazin-1-yl)-2-(1H-indol-2-yl)-7-oxo-[1,2,4]triazolo[1,5-a]pyrimidin-4(7H)-yl)acetamide]: the IC50 in test [1] (read-out: IC50) and in test [2] was 1 to 100 nM in each case.

For the molecule `CCc1c(N2CCN(C(=O)c3ncnc(C)c3O)CC2)c(=O)n2nc(-c3cc4ccccc4n3C)nc2n1CC(=O)Nc1ccc(C(F)(F)F)cc1Cl` [Example 74, N-(2-chloro-4-(trifluoromethyl)phenyl)-2-(5-ethyl-6-(4-(5-hydroxy-6-methylpyrimidine-4-carbonyl)piperazin-1-yl)-2-(1-methyl-1H-indol-2-yl)-7-oxo-[1,2,4]triazolo[1,5-a]pyrimidin-4(7H)-yl)ac etamide], the IC50 in test [1] (read-out: IC50) and in test [2] was 1 to 100 nM throughout.

Turning to `CCc1c(N2CCN(C(=O)c3ncnc(C)c3O)CC2)c(=O)n2nc(-c3ccc4ccoc4c3)nc2n1CC(=O)Nc1ccc(S(F)(F)(F)(F)F)cc1` [Example 77, 2-(2-(benzofuran-6-yl)-5-ethyl-6-(4-(5-hydroxy-6-methylpyrimidine-4-carbonyl)piperazin-1-yl)-7-oxo-[1,2,4]triazolo[1,5-a]pyrimidin-4(7H)-yl)-N-(4-(pentafluoro-λ^6-sulfaneyl)phenyl)acetamide], the IC50 in test [1] (read-out: IC50) and in test [2] was 1 to 100 nM throughout.

As to `CCc1c(N2CCN(C(=O)c3ncnc(C)c3O)CC2)c(=O)n2nc(-c3ccc4c(c3)CCO4)nc2n1CC(=O)Nc1ccc(SC(F)(F)F)cc1F` [Example 89, 2-(2-(2,3-Dihydrobenzofuran-5-yl)-5-ethyl-6-(4-(5-hydroxy-6-methylpyrimidine-4-carbonyl)piperazin-1-yl)-7-oxo-[1,2,4]triazolo[1,5-a]pyrimidin-4(7H)-yl)-N-(2-fluoro-4-((trifluoromethyl)thio)phenyl)acetamide], the half-inhibitory concentration (IC50) in test [1] (read-out: IC50) and in test [2] was 1 to 100 nM throughout.

Turning to `Cc1ncnc(C(=O)N2CCN(c3c(C4CC4)n(CC(=O)Nc4ccc(C(F)(F)F)cc4Cl)c4nc(-c5ccc6c(c5)CCO6)nn4c3=O)CC2)c1O` [Example 152, N-(2-chloro-4-(trifluoromethyl)phenyl)-2-(5-cyclopropyl-2-(2,3-dihydrobenzofuran-5-yl)-6-(4-(5-hydroxy-6-methylpyrimidine-4-carbonyl)piperazin-1-yl)-7-oxo-[1,2,4]triazolo[1,5-a]pyrimidin-4 (7H)-yl)acetamide], the IC50 in test [1] (read-out: IC50) and in test [2] was 1 to 100 nM throughout.

With `CCO/C=C/c1nc2n(CC(=O)Nc3ccc(C(F)(F)F)cc3Cl)c(CC)c(N3CCN(C(=O)c4ncnc(C)c4O)CC3)c(=O)n2n1` [Example 193, (E)-N-(2-chloro-4-(trifluoromethyl)phenyl)-2-(2-(2-ethoxyvinyl)-5-ethyl-6-(4-(5-hydroxy-6-methylpyrimidine-4-carbonyl)piperazin-1-yl)-7-oxo-[1,2,4]triazolo[1,5-a]pyrimidin-4(7H)-yl)acetamide], the half-maximal inhibitory concentration (IC50) in test [1] (read-out: IC50) was in the range of 1 to 100 nM.

For the molecule `CCc1c(N2CCN(C(=O)c3ncnc(C)c3O)CC2)c(=O)n2nc(/C=C/C(=O)N3CCC3)nc2n1CC(=O)Nc1ccc(C(F)(F)F)cc1Cl` [Example 194, (E)-2-(2-(3-(azetidin-1-yl)-3-oxoprop-1-en-1-yl)-5-ethyl-6-(4-(5-hydroxy-6-methylpyrimidine-4-carbonyl)piperazin-1-yl)-7-oxo-[1,2,4]triazolo[1,5-a]pyrimidin-4(7H)-yl)-N-(2-chloro-4-(trifluor omethyl)phenyl)acetamide], in test [1] (read-out: IC50), the IC50 was in the range of 1 to 100 nM.

As for `CCc1c(N2CCN(C(=O)c3ncnc(C)c3O)CC2)c(=O)n2nc(C3=C[C@@H]4C[C@@H]4C3)nc2n1CC(=O)Nc1ccc(S(F)(F)(F)(F)F)cc1` [Example 195, 2-(2-((1R,5R)-bicyclo[3.1.0]hex-2-en-3-yl)-5-ethyl-6-(4-(5-hydroxy-6-methylpyrimidine-4-carbonyl)piperazin-1-yl)-7-oxo-[1,2,4]triazolo[1,5-a]pyrimidin-4(7H)-yl)-N-(4-(pentafluoro-λ6-sulfaneyl)phenyl)acetamide], the IC50 in test [1] (read-out: IC50) lay in the range of 1 to 100 nM.

As to `CCc1c(N2CCN(C(=O)c3ncnc(C)c3O)CC2)c(=O)n2nc(C3=C[C@H]4C[C@H]4C3)nc2n1CC(=O)Nc1ccc(S(F)(F)(F)(F)F)cc1` [Example 196, 2-(2-((1S,5S)-bicyclo[3.1.0]hex-2-en-3-yl)-5-ethyl-6-(4-(5-hydroxy-6-methylpyrimidine-4-carbonyl)piperazin-1-yl)-7-oxo-[1,2,4]triazolo[1,5-a]pyrimidin-4(7H)-yl)-N-(4-(pentafluoro-λ6-sulfaneyl)phenyl)acetamide], in test [1], the IC50 lay within 1 to 100 nM.

The IC50 is the concentration that inhibits the measured activity by half.
